The test system of this assay is SARS-CoV-2, USA-WA1/2020. Kind of assay: Antiviral assay: inhibition of SARS-CoV-2 cytopathic effect, neutral red. The note with it: Severe acute respiratory syndrome coronavirus 2; Vero 76 cells, CPE inhibition by 50%, neutral red; i) and ii) are separate determinations; read-out: Anti-viral Assay (EC50). The assay is classed as cell-based. On the technique in general: Cytopathic effects are the visible damage that an infection or toxin causes in cultured cells.

Broadly, the EC50 is the midpoint of the concentration-response curve. For the compound `N#C[C@@]1(c2ccc3c(N)ncnn23)O[C@H](CO)[C@@H](O)[C@H]1O` [GS-441524], the EC50 is 500 to 1100 nM.

These data come from patent US11279727B2, “Anti-viral compounds and methods of use” (Metro International Biotech, LLC, priority 2020, dated 2022).
